Broadly, the IC50 is the point on the concentration scale where inhibition reaches its midpoint. High values mean lower potency, low ones higher potency.

Structures are written as SMILES.

One series relates to MKN1 cells. In words: MKN1 CTG proliferation assay (120 h) (gastric cancer, wt amplified). Format: cell-based. Conditions: Homo sapiens, MKN-1. In a few lines:
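Cells were seeded at 200 per well in RPMI-1640 with 10% FCS, grown overnight, then exposed to logarithmic compound dilutions in duplicate for 120 h. Viability was read by CellTiter-Glo luminescence as percent of DMSO controls, with untreated T0 cells measured at dosing. IC50 came from four-parameter non-linear regression.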
In the case of `CO[C@H]1CCN(C)[C@@H]1[C@H](C)Oc1nc(-c2onc3c2CCC[C@@]32CCCc3sc(N)c(C#N)c32)nc2c1n(C)c(=O)n2[C@@H]1CCOC1` [I-23], inhibition was half-maximal at 0.006 µM (IC50).
The compound `CCn1c(=O)n([C@@H]2CCCOC2)c2nc(-c3onc4c3CCC[C@@]43CCCc4sc(N)c(C#N)c43)nc(OC[C@@]34CCCN3C[C@H](F)C4)c21` [I-33] had a half-inhibitory concentration (IC50) of 4.15 µM. This IC50 is about 690-fold higher than that of the compound before.
The same measure, in the same setting: the same measure for `C[C@H](Oc1nc(-c2noc3c2CCC[C@@]32CCCc3sc(N)c(C#N)c32)nc2c1CN(C1COC1)C[C@]21CCOC1)[C@@H]1CCCN1C` [II-12]: 0.01 µM; for `C[C@H](Oc1nc(-c2onc3c2CCC[C@@]32CCCc3sc(N)c(C#N)c32)nc2c1n(C)c(=O)n2[C@@H]1CCOC1)C12CCCN1CCC2` [I-25]: 0.048 µM; for `CCn1c(=O)n([C@@H]2CCCOC2)c2nc(-c3onc4c3CCC[C@@]43CCCc4sc(N)c(C#N)c43)nc(O[C@@H](C)C34CCCN3CCC4)c21` [I-36]: 0.239 µM.
Same read-out and setting: then `C[C@H](Oc1nc(-c2onc3c2CCC[C@@]32CCCc3sc(N)c(C#N)c32)nc2c1ncn2[C@@H]1CCOC1)[C@@H]1CCCN1C` [I-38], with 0.032 µM.
As to `C[C@H](Oc1nc(-c2noc3c2CCC[C@@]32CCCc3sc(N)c(C#N)c32)nc2c1CN(c1ncccn1)[C@]21CCOC1)[C@@H]1CCCN1C` [II-7a], the IC50 came to 0.041 µM.
On the same count and under the same terms, then `C[C@H](Oc1nc(-c2onc3c2CCC[C@@]32CCCc3sc(N)c(C#N)c32)nc2c1CN(C1COC1)C[C@]21CCOC1)[C@@H]1CC[C@H](C)N1C` [I-55], with 0.018 µM; and `CO[C@H]1CCN(C)[C@@H]1[C@H](C)Oc1nc(-c2noc3c2CCC[C@@]32CCCc3sc(N)c(C#N)c32)nc2c1CN(C1COC1)C[C@]21CCOC1` [II-13], with 0.005 µM; and `C[C@H](Oc1nc(-c2noc3c2CCC[C@@]32SCCc3sc(N)c(C#N)c32)nc2c1COC[C@]21CCOC1)[C@@H]1CCCN1C` [II-16], with 0.004 µM.

Another series deals with Ba/F3 cells KRAS G12C. The series is described as follows: Ba/F3 proliferation assay (KRAS G12C). Particulars: Mus musculus, BaF3, 72 h, AlamarBlue viability. Format: cell-based. Put shortly: (§1)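 Ba/F3 cells retrovirally transduced with KRAS G12 mutant, puromycin-selected, grown IL-3-independent; seeded in RPMI-1640 + 10% FCS without IL-3. Logarithmic compound dose series in duplicate, 72 h at 37° C., AlamarBlue fluorescence as % of DMSO control; IC50 from four-parameter non-linear regression.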
`CO[C@H]1CCN(C)[C@@H]1[C@H](C)Oc1nc(-c2onc3c2CCC[C@@]32CCCc3sc(N)c(C#N)c32)nc2c1n(C)c(=O)n2[C@@H]1CCOC1` [I-23]: the IC50 was found to be 0.004 µM.
Same read-out and setting: then `CCn1c(=O)n([C@@H]2CCCOC2)c2nc(-c3onc4c3CCC[C@@]43CCCc4sc(N)c(C#N)c43)nc(OC[C@@]34CCCN3C[C@H](F)C4)c21` [I-33], with 1.6 µM.
In the case of `C[C@H](Oc1nc(-c2noc3c2CCC[C@@]32CCCc3sc(N)c(C#N)c32)nc2c1CN(C1COC1)C[C@]21CCOC1)[C@@H]1CCCN1C` [II-12], the IC50 amounted to 0.002 µM.
The same measure, in the same setting: then `C[C@H](Oc1nc(-c2onc3c2CCC[C@@]32CCCc3sc(N)c(C#N)c32)nc2c1n(C)c(=O)n2[C@@H]1CCOC1)C12CCCN1CCC2` [I-25], with 0.012 µM; and `CCn1c(=O)n([C@@H]2CCCOC2)c2nc(-c3onc4c3CCC[C@@]43CCCc4sc(N)c(C#N)c43)nc(O[C@@H](C)C34CCCN3CCC4)c21` [I-36], with 0.031 µM; and `C[C@H](Oc1nc(-c2onc3c2CCC[C@@]32CCCc3sc(N)c(C#N)c32)nc2c1ncn2[C@@H]1CCOC1)[C@@H]1CCCN1C` [I-38], with 0.033 µM.
On the same count and under the same terms, then `C[C@H](Oc1nc(-c2noc3c2CCC[C@@]32CCCc3sc(N)c(C#N)c32)nc2c1CN(c1ncccn1)[C@]21CCOC1)[C@@H]1CCCN1C` [II-7a], with 0.01 µM.
On the same count and under the same terms, then `C[C@H](Oc1nc(-c2onc3c2CCC[C@@]32CCCc3sc(N)c(C#N)c32)nc2c1CN(C1COC1)C[C@]21CCOC1)[C@@H]1CC[C@H](C)N1C` [I-55], with 0.003 µM; and `CO[C@H]1CCN(C)[C@@H]1[C@H](C)Oc1nc(-c2noc3c2CCC[C@@]32CCCc3sc(N)c(C#N)c32)nc2c1CN(C1COC1)C[C@]21CCOC1` [II-13], with 0.002 µM; and `C[C@H](Oc1nc(-c2noc3c2CCC[C@@]32SCCc3sc(N)c(C#N)c32)nc2c1COC[C@]21CCOC1)[C@@H]1CCCN1C` [II-16], with 0.001 µM.

Tested on in the next series: not listed separately
The series is described as follows: Metabolic (microsomal) stability assay, human liver microsomes (HLM). Format: in vitro ADME. Particulars: 1 μM test compound, predicted clearance as percent of liver blood flow.
As for `CO[C@H]1CCN(C)[C@@H]1[C@H](C)Oc1nc(-c2onc3c2CCC[C@@]32CCCc3sc(N)c(C#N)c32)nc2c1n(C)c(=O)n2[C@@H]1CCOC1` [I-23], the “HLM QH” value is 77%.
Same read-out and setting: the same measure for `CCn1c(=O)n([C@@H]2CCCOC2)c2nc(-c3onc4c3CCC[C@@]43CCCc4sc(N)c(C#N)c43)nc(OC[C@@]34CCCN3C[C@H](F)C4)c21` [I-33]: 48%.
On the same count and under the same terms, then `C[C@H](Oc1nc(-c2noc3c2CCC[C@@]32CCCc3sc(N)c(C#N)c32)nc2c1CN(C1COC1)C[C@]21CCOC1)[C@@H]1CCCN1C` [II-12], with 26%.
Same read-out and setting: the same measure for `C[C@H](Oc1nc(-c2onc3c2CCC[C@@]32CCCc3sc(N)c(C#N)c32)nc2c1n(C)c(=O)n2[C@@H]1CCOC1)C12CCCN1CCC2` [I-25]: 33%; for `CCn1c(=O)n([C@@H]2CCCOC2)c2nc(-c3onc4c3CCC[C@@]43CCCc4sc(N)c(C#N)c43)nc(O[C@@H](C)C34CCCN3CCC4)c21` [I-36]: 37%; for `C[C@H](Oc1nc(-c2onc3c2CCC[C@@]32CCCc3sc(N)c(C#N)c32)nc2c1ncn2[C@@H]1CCOC1)[C@@H]1CCCN1C` [I-38]: 28%.
Turning to `C[C@H](Oc1nc(-c2noc3c2CCC[C@@]32CCCc3sc(N)c(C#N)c32)nc2c1CN(c1ncccn1)[C@]21CCOC1)[C@@H]1CCCN1C` [II-7a], the “HLM QH” value is on record as below 24%.
The same measure, in the same setting: the same measure for `C[C@H](Oc1nc(-c2onc3c2CCC[C@@]32CCCc3sc(N)c(C#N)c32)nc2c1CN(C1COC1)C[C@]21CCOC1)[C@@H]1CC[C@H](C)N1C` [I-55]: 52%; for `CO[C@H]1CCN(C)[C@@H]1[C@H](C)Oc1nc(-c2noc3c2CCC[C@@]32CCCc3sc(N)c(C#N)c32)nc2c1CN(C1COC1)C[C@]21CCOC1` [II-13]: 66%; for `C[C@H](Oc1nc(-c2noc3c2CCC[C@@]32SCCc3sc(N)c(C#N)c32)nc2c1COC[C@]21CCOC1)[C@@H]1CCCN1C` [II-16]: 64%.

The next series concerns AsPC-1 cells. The series is described as follows: AsPC-1 CTG proliferation assay (120 h) (pancreatic cancer, G12D). Format: cell-based. Conditions: Homo sapiens, ASPC1. In a few lines: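 AsPC-1 cells plated overnight, then exposed to logarithmic compound dose series (duplicates) for 120 h at 37° C. Viability by CellTiter-Glo luminescence as percent of DMSO controls, with a T0 reading at compound addition; IC50 from four-parameter non-linear regression.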
With `CO[C@H]1CCN(C)[C@@H]1[C@H](C)Oc1nc(-c2onc3c2CCC[C@@]32CCCc3sc(N)c(C#N)c32)nc2c1n(C)c(=O)n2[C@@H]1CCOC1` [I-23], the IC50 was found to be 0.54 µM.
Same read-out and setting: the same measure for `CCn1c(=O)n([C@@H]2CCCOC2)c2nc(-c3onc4c3CCC[C@@]43CCCc4sc(N)c(C#N)c43)nc(OC[C@@]34CCCN3C[C@H](F)C4)c21` [I-33]: 8.95 µM.
Same read-out and setting: the same measure for `C[C@H](Oc1nc(-c2noc3c2CCC[C@@]32CCCc3sc(N)c(C#N)c32)nc2c1CN(C1COC1)C[C@]21CCOC1)[C@@H]1CCCN1C` [II-12]: 0.129 µM; for `C[C@H](Oc1nc(-c2onc3c2CCC[C@@]32CCCc3sc(N)c(C#N)c32)nc2c1n(C)c(=O)n2[C@@H]1CCOC1)C12CCCN1CCC2` [I-25]: 1.3 µM.
Same read-out and setting: then `CCn1c(=O)n([C@@H]2CCCOC2)c2nc(-c3onc4c3CCC[C@@]43CCCc4sc(N)c(C#N)c43)nc(O[C@@H](C)C34CCCN3CCC4)c21` [I-36], with 1.1 µM; and `C[C@H](Oc1nc(-c2onc3c2CCC[C@@]32CCCc3sc(N)c(C#N)c32)nc2c1ncn2[C@@H]1CCOC1)[C@@H]1CCCN1C` [I-38], with 0.267 µM; and `C[C@H](Oc1nc(-c2noc3c2CCC[C@@]32CCCc3sc(N)c(C#N)c32)nc2c1CN(c1ncccn1)[C@]21CCOC1)[C@@H]1CCCN1C` [II-7a], with 0.307 µM.
The compound `C[C@H](Oc1nc(-c2onc3c2CCC[C@@]32CCCc3sc(N)c(C#N)c32)nc2c1CN(C1COC1)C[C@]21CCOC1)[C@@H]1CC[C@H](C)N1C` [I-55] gave an IC50 of 0.202 µM. Compared with the last compound, the IC50 is about 1.5-fold lower.
Turning to `CO[C@H]1CCN(C)[C@@H]1[C@H](C)Oc1nc(-c2noc3c2CCC[C@@]32CCCc3sc(N)c(C#N)c32)nc2c1CN(C1COC1)C[C@]21CCOC1` [II-13], the IC50 came to 0.043 µM.
Still for that read-out and setting: then `C[C@H](Oc1nc(-c2noc3c2CCC[C@@]32SCCc3sc(N)c(C#N)c32)nc2c1COC[C@]21CCOC1)[C@@H]1CCCN1C` [II-16], with 0.034 µM.

A further series deals with Ba/F3 cells KRAS G12V. In words: Ba/F3 proliferation assay (KRAS G12V). Particulars: Mus musculus, BaF3, 72 h, AlamarBlue viability. Format: cell-based. Put shortly: as §1
A general note: Resazurin is reduced to fluorescent resorufin, in cell work by metabolically active cells.
On to `CO[C@H]1CCN(C)[C@@H]1[C@H](C)Oc1nc(-c2onc3c2CCC[C@@]32CCCc3sc(N)c(C#N)c32)nc2c1n(C)c(=O)n2[C@@H]1CCOC1` [I-23], for which the half-inhibitory concentration (IC50) amounted to 0.002 µM.
The same measure, in the same setting: the same measure for `CCn1c(=O)n([C@@H]2CCCOC2)c2nc(-c3onc4c3CCC[C@@]43CCCc4sc(N)c(C#N)c43)nc(OC[C@@]34CCCN3C[C@H](F)C4)c21` [I-33]: 0.739 µM; for `C[C@H](Oc1nc(-c2noc3c2CCC[C@@]32CCCc3sc(N)c(C#N)c32)nc2c1CN(C1COC1)C[C@]21CCOC1)[C@@H]1CCCN1C` [II-12]: 0.001 µM; for `C[C@H](Oc1nc(-c2onc3c2CCC[C@@]32CCCc3sc(N)c(C#N)c32)nc2c1n(C)c(=O)n2[C@@H]1CCOC1)C12CCCN1CCC2` [I-25]: 0.007 µM.
On the same count and under the same terms, then `CCn1c(=O)n([C@@H]2CCCOC2)c2nc(-c3onc4c3CCC[C@@]43CCCc4sc(N)c(C#N)c43)nc(O[C@@H](C)C34CCCN3CCC4)c21` [I-36], with 0.018 µM.
Same read-out and setting: then `C[C@H](Oc1nc(-c2onc3c2CCC[C@@]32CCCc3sc(N)c(C#N)c32)nc2c1ncn2[C@@H]1CCOC1)[C@@H]1CCCN1C` [I-38], with 0.02 µM; and `C[C@H](Oc1nc(-c2noc3c2CCC[C@@]32CCCc3sc(N)c(C#N)c32)nc2c1CN(c1ncccn1)[C@]21CCOC1)[C@@H]1CCCN1C` [II-7a], with 0.01 µM; and `C[C@H](Oc1nc(-c2onc3c2CCC[C@@]32CCCc3sc(N)c(C#N)c32)nc2c1CN(C1COC1)C[C@]21CCOC1)[C@@H]1CC[C@H](C)N1C` [I-55], with 0.001 µM.
Consider `CO[C@H]1CCN(C)[C@@H]1[C@H](C)Oc1nc(-c2noc3c2CCC[C@@]32CCCc3sc(N)c(C#N)c32)nc2c1CN(C1COC1)C[C@]21CCOC1` [II-13], for which inhibition was half-maximal at 0.001 µM (IC50).
`C[C@H](Oc1nc(-c2noc3c2CCC[C@@]32SCCc3sc(N)c(C#N)c32)nc2c1COC[C@]21CCOC1)[C@@H]1CCCN1C` [II-16]: half-maximal inhibition (IC50) required 0.001 µM. This counts as single-digit nanomolar.

These data come from patent US20250019385A1, “SPIROCYCLIC ANNULATED 2-AMINO-3-CYANO THIOPHENES AND DERIVATIVES FOR THE TREATMENT OF CANCER” (Boehringer Ingelheim International GmbH, priority 2023, published 2025).
